Measurements taken from patent US20140378408A1, “NUCLEOSIDE 5'-PHOSPHOROTHIOATE ANALOGUES AND USES THEREOF” (BAR-ILAN UNIVERSITY, an Israeli University, priority 2012, published 2014).

Experiments:
human P2Y2-R = target: T1, human P2Y2-R (Homo sapiens, UniProt P41231); experiment: [Ca^2+]i response of 1321N1 astrocytoma cells expressing P2Y2-R GFP; assay type: cell-based; details: for EC50: agonist, read-out: EC50 at the P2Y2 receptor; for activity at the P2Y2 receptor: isomer A of APPCCl2P-α-S at 100 μM
T1 construct: expressed in transfected cells; host or cells: 1321N1 astrocytoma cells
T1 sequence (P41231 whole entry): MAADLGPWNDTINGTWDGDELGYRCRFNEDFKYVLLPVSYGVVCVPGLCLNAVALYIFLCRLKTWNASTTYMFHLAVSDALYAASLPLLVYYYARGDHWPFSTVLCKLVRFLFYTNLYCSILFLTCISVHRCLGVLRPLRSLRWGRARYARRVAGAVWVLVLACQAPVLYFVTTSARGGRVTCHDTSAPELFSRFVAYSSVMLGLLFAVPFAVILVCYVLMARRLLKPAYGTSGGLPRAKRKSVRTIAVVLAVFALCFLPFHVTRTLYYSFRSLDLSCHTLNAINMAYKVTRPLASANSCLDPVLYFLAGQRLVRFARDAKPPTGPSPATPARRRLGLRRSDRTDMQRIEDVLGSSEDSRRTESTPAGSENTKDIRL
Description: GFP constructs of human P2Y2-R, P2Y1-R and P2Y11-R were stably expressed in 1321N1 astrocytoma cells, which lack endogenous expression of P2X- and P2Y-receptors. The respective cDNA of the receptor gene was cloned into a pEGFPN1 vector and after transfection, using FuGENE 6 Transfection Reagent (Roche Molecular Biochemicals, Mannheim, Germany), cells were selected with 0.5 mg/ml G418 (geneticine; Merck Chemicals, Darmstadt, Germany) and grown in DMEM supplemented with 10% serum (FCS), 100 U/ml penicillin and 100 U/ml streptomycin at 37° C. and 5% CO2. The expression and cell membrane localization of the respective P2Y receptors was confirmed through the analysis of the GFP fluorescence. The functionality of the expressed GFP-labeled receptor in cells was verified by recording a change of [Ca^2+]i after stimulation with the appropriate receptor agonist.
1321N1 astrocytoma cells transfected with the respective plasmid for P2Y-R-GFP expression plated on coverslips (22 mm diameter) and grown to approximately 80% density, were incubated with 2 μM fura 2/AM and 0.02% pluronic acid in Na-HBS buffer (Hepes buffered saline: 145 mM NaCl, 5.4 mM KCl, 1.8 mM CaCl2, 1 mM MgCl2, 25 mM glucose, 20 mM Hepes/Tris pH 7.4) for 30 min at 37° C. The cells were superfused (1 ml/min, 37° C.) with different concentrations of nucleotide in Na-HBS buffer. The nucleotide-induced change of [Ca^2+] was monitored by detecting the fluorescence intensities with excitations at 340 nm and 380 nm. Only GFP-labeled cells were analyzed. Microsoft Excel (Microsoft Corp., Redmond, Wash., USA) and SigmaPlot (SPSS Inc., Chicago, Ill., USA) were used to derive the concentration-response curves and EC50 values from the average response amplitudes obtained in at least three independent experiments (Ecke et al., 2006; Ecke et al., 2008). Only cells with a clear GFP-signal and with the typical calcium response kinetics upon agonist pulse application were included in the data analysis. The nucleotide induced change of [Ca^2+]i was monitored by detecting the respective emission intensity of fura 2/AM at 510 nm with 340 nm and 380 nm excitations (Ubl et al., 1998). The average maximal amplitude of the responses and the respective standard errors were calculated from ratio of the fura 2/AM. The GFP-tagged P2Y receptors are suitable for pharmacological and physiological studies, as previously reported (Tulapurkar et al., 2004; Tulapurkar et al., 2006; Zylberg et al., 2007).

human NPP3 = target: T2, human NPP3 (Homo sapiens, UniProt O14638); experiment: Inhibition of NPP3 activity; assay type: biochemical; details: for inhibition at 100 µM: read-out: inhibition of NPP3 activity; for inhibition of pnp-TMP hydrolysis by NPP3: analogue and pnp-TMP 100 μM
T2 construct: made in house; host or cells: COS-7 cells (transfected; protein extract / cell lysate)
T2 sequence (O14638 1-875): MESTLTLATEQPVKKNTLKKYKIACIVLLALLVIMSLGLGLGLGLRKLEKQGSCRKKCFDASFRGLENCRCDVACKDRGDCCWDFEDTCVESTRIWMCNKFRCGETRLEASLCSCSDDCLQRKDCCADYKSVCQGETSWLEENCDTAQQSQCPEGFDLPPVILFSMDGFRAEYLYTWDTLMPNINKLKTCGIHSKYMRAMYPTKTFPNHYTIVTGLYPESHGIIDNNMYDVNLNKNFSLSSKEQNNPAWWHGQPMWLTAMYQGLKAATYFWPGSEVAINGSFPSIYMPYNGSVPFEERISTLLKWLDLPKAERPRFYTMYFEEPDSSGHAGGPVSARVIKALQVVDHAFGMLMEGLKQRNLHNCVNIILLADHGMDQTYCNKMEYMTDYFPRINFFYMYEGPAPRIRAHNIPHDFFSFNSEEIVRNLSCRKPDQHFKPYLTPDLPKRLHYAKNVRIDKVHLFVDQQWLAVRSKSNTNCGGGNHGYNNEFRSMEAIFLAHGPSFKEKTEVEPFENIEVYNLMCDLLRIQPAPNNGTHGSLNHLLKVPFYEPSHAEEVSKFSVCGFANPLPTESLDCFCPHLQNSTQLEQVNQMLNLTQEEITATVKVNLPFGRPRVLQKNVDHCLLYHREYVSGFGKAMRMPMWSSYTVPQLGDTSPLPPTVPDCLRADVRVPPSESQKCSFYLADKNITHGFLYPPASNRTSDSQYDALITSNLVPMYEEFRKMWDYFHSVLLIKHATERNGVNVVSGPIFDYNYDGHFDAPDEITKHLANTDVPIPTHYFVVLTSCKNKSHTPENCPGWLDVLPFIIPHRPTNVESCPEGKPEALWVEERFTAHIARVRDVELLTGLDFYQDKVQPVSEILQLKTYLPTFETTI
Description: Pnp-TMP hydrolyses were carried out at 37° C. in 0.2 ml of the following incubation mixture: in mM, 1 CaCl2, 130 NaCl, 5 KCl and 50 Tris, pH 8.5, with or without the analogue tested and/or substrates. Substrates and analogues were all used at the final concentration of 100 μM. […] For pnp-TMP hydrolysis, the production of para-nitro-phenol was measured at […], 15 min after the initiation of the reaction.
The samples were centrifuged for 5 min at 13,000×g. Supernatants were neutralized with 1 M KOH (Fisher Scientific, Ottawa, ON, Canada) at 4° C. and centrifuged for 5 min at 13,000×g.

Compound	EC50 (human P2Y2-R)	activity at the P2Y2 receptor (human P2Y2-R)	inhibition at 100 µM (human NPP3)	inhibition of pnp-TMP hydrolysis by NPP3 (human NPP3)	also measured
Nc1ncnc2c1ncn2[C@@H]1O[C@H](COP(=O)(O)CP(=O)(O)OP(O)(O)=S)[C@@H](O)[C@H]1O [APCPP-γ-S, adenosine 5′-[Pγ-thio]-α,β-methylenetriphosphate]	> 10 µM	neither agonist nor antagonist	23 to 43%		
Nc1ncnc2c1ncn2[C@@H]1O[C@H](COP(O)(=S)OP(=O)(O)C(Cl)(Cl)P(=O)(O)O)[C@@H](O)[C@H]1O (single isomer, unassigned; isomer a) [APPCCl2P-α-S (isomer A), adenosine 5′-[Pα-thio]-β,γ-(dichloromethylene)triphosphate]		no activity as agonist			
Nc1ncnc2c1ncn2[C@@H]1O[C@H](COP(O)(=S)OP(=O)(O)C(Cl)(Cl)P(=O)(O)O)[C@@H](O)[C@H]1O (single isomer, unassigned) [APPCCl2P-α-S, adenosine 5′-[Pα-thio]-β,γ-(dichloromethylene)triphosphate]	> 10 µM		23 to 43%		inhibition of the hydrolysis of ATP by NPP3 (human NPP3): 33%
di-adenosine-5′,5″-tetrathiobisphosphonate				20%	
adenosine-5′-tetrathiobisphosphonate				7%	
Nc1ncnc2c1ncn2[C@@H]1O[C@H](COP(=O)(O)OP(O)(O)=S)[C@@H](O)[C@H]1O [ADP-β-S, adenosine 5′-[β-thio]diphosphate, reference compound]				less than 50%	
